The NIST ThermoML archive (doi:10.1021/je700123q)
± gives the expanded uncertainty stated by the source. Each block holds one molecule with its values, some of them ahead of it.

Legend:
[1] = xn = mol fraction of the nth substance listed; conditions: Liquid
[2] = Liquid; for Critical pressure: Direct measurement; for Critical temperature: Visual observation in an unstirred cell

SMILES: FC(OC(F)(F)F)C(F)(F)F (stereo not drawn) [1,1,1,2-tetrafluoro-2-(trifluoromethoxy)ethane] + COC(F)(F)F
- Critical density ([1]; x1 = 0.1455): 480 ± 6 kg/m3
- Critical density ([1]; x1 = 0.2585): 506 ± 6 kg/m3
- Critical density ([1]; x1 = 0.4147): 523 ± 6 kg/m3
- Critical density ([1]; x1 = 0.5954): 539 ± 6 kg/m3
- Critical density ([1]; x1 = 0.7403): 558 ± 7 kg/m3
- Critical density ([1]; x1 = 1): 580 ± 7 kg/m3

SMILES: COC(F)(F)C(F)(F)F [methyl pentafluoroethyl ether]
- Critical density [2]: 491 ± 6 kg/m3
- Critical pressure [2]: 2885 ± 6 kPa
- Critical temperature [2]: 406.82 ± 0.06 K

SMILES: COC(F)(F)C(F)(F)F [methyl pentafluoroethyl ether] + FC(OC(F)(F)F)C(F)(F)F
- Critical density ([1]; x2 = 0): 491 ± 6 kg/m3

- Critical density ([1]; x2 = 0): 459 ± 5 kg/m3
SMILES: COC(F)(F)F [trifluoromethoxymethane] + FC(OC(F)(F)F)C(F)(F)F

- Critical density [2]: 459 ± 5 kg/m3
- Critical pressure [2]: 3640 ± 6 kPa
- Critical temperature [2]: 377.92 ± 0.06 K
SMILES: COC(F)(F)F [trifluoromethoxymethane]

SMILES: FC(OC(F)(F)F)C(F)(F)F (stereo not drawn) [1,1,1,2-tetrafluoro-2-(trifluoromethoxy)ethane] + COC(F)(F)C(F)(F)F
- Critical density ([1]; x1 = 0.1694): 510 ± 6 kg/m3
- Critical density ([1]; x1 = 0.2941): 521 ± 6 kg/m3
- Critical density ([1]; x1 = 0.4706): 536 ± 6 kg/m3
- Critical density ([1]; x1 = 0.6565): 554 ± 6 kg/m3
- Critical density ([1]; x1 = 0.7952): 566 ± 7 kg/m3
- Critical density ([1]; x1 = 1): 580 ± 7 kg/m3

SMILES: FC(OC(F)(F)F)C(F)(F)F (stereo not drawn) [1,1,1,2-tetrafluoro-2-(trifluoromethoxy)ethane]
- Critical density [2]: 580 ± 4 kg/m3
- Critical pressure [2]: 2621 ± 4 kPa
- Critical temperature [2]: 377.26 ± 0.06 K
